Values quoted from earlier work, collected in patent US20220386610A1, “FUNGICIDAL COMBINATIONS” (UPL Corporation Limited, priority 2019, published 2022).

System: soybean rust
Settings: for control: 2012/13 season

Structure (SMILES) | control | efficiency (reduced level) (after ten seasons) | efficiency (starting level) (before the reduction over ten seasons)
CC(C1CC1)C(O)(Cn1cncn1)c1ccc(Cl)cc1 (stereo not shown) [cyproconazole] | 38% | – | –
CC(C)(C)C(O)(CCc1ccc(Cl)cc1)Cn1cncn1 (stereo not shown) [tebuconazole] | 42% | 24% | 90%
